Test results as given in PubChem BioAssay AID1963431 (Molecular Pharmacology Branch, DTP, NCI, 2024).

Tested on: Rh18 complex spheroid viability, percent test/control
Experiment: Anticancer human tumor Rh18 cell line growth inhibition [Asc];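 further: spheroids exposed to compound for 7 days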;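 on viability, T/C: 100% = DMSO vehicle control wells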
Conditions: for IC50: curve of first compound; for viability, T/C: stronger effect = lower value; active means viability on the fitted dose curve at most 10% of control; inactive means the rest
Summary of the method: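 Concentration series start at each agent's clinical Cmax, or at 10 microM when none is established, and drop in half-log steps; agents are applied alone or together to complex spheroids built with HUVEC and hMSC.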

[1] = second compound 0.1 µM, first compound 0.00316 µM
[2] = second compound 0.1 µM, first compound 0.01 µM
[3] = second compound 0.1 µM, first compound 0.0316 µM
[4] = second compound 0.1 µM, first compound 0.1 µM
[5] = second compound 0.316 µM, first compound 0.00316 µM
[6] = second compound 0.316 µM, first compound 0.01 µM
[7] = second compound 0.316 µM, first compound 0.0316 µM
[8] = second compound 0.316 µM, first compound 0.1 µM
[9] = second compound 1 µM, first compound 0.00316 µM
[10] = second compound 1 µM, first compound 0.01 µM
[11] = second compound 1 µM, first compound 0.0316 µM
[12] = second compound 1 µM, first compound 0.1 µM
[13] = second compound 3.16 µM, first compound 0.00316 µM
[14] = second compound 3.16 µM, first compound 0.01 µM
[15] = second compound 3.16 µM, first compound 0.0316 µM
[16] = second compound 3.16 µM, first compound 0.1 µM
[17] = second compound 10 µM, first compound 0.00316 µM
[18] = second compound 10 µM, first compound 0.01 µM
[19] = second compound 10 µM, first compound 0.0316 µM
[20] = second compound 10 µM, first compound 0.1 µM

NC(=O)C(=Cn1cnc(-c2cc(C(F)(F)F)cc(C(F)(F)F)c2)n1)c1cncnc1 + Cc1c(S(C)(=O)=O)c(-c2cc(F)cc(N3CCN(c4ccc(NS(=O)(=O)c5ccc(NC(CCN6CCC(C(=O)OCCCP(=O)(O)O)CC6)CSc6ccccc6)c(S(=O)(=O)C(F)(F)F)c5)cc4)CC3)c2)c(-c2ccc(Cl)cc2)n1C(C)C
active: viability, T/C (second compound 0.1 µM, first compound 0.3 µM) 5.69% | viability, T/C (second compound 0.316 µM, first compound 0.03 µM) 9.84% | viability, T/C (second compound 0.316 µM, first compound 0.0949 µM) 9.11% | viability, T/C (second compound 0.316 µM, first compound 0.3 µM) 3.67% | viability, T/C (second compound 1 µM, first compound 0.003 µM) 9.49% | viability, T/C (second compound 1 µM, first compound 0.00949 µM) 8.9% | viability, T/C (second compound 1 µM, first compound 0.03 µM) 7.48% | viability, T/C (second compound 1 µM, first compound 0.0949 µM) 7.03% | viability, T/C (second compound 1 µM, first compound 0.3 µM) 2.37% | viability, T/C (second compound 3.16 µM, first compound 0.000949 µM) 7.63% | viability, T/C (second compound 3.16 µM, first compound 0.003 µM) 8.78% | viability, T/C (second compound 3.16 µM, first compound 0.00949 µM) 7.9% | viability, T/C (second compound 3.16 µM, first compound 0.03 µM) 5.11% | viability, T/C (second compound 3.16 µM, first compound 0.0949 µM) 4.79% | viability, T/C (second compound 3.16 µM, first compound 0.3 µM) 2.11% | viability, T/C (second compound 10 µM, first compound 0.000949 µM) 4.44% | viability, T/C (second compound 10 µM, first compound 0.003 µM) 6.25% | viability, T/C (second compound 10 µM, first compound 0.00949 µM) 6.34% | viability, T/C (second compound 10 µM, first compound 0.03 µM) 5.72% | viability, T/C (second compound 10 µM, first compound 0.0949 µM) 3.51% | viability, T/C (second compound 10 µM, first compound 0.3 µM) 1.84%
< 0.949 nM: IC50 (second compound 0.1 µM) | IC50 (second compound 0.316 µM) | IC50 (second compound 1 µM) | IC50 (second compound 3.16 µM) | IC50 (second compound 10 µM)
inactive: viability, T/C (second compound 0.1 µM, first compound 0.000949 µM) 13.5% | viability, T/C (second compound 0.1 µM, first compound 0.003 µM) 16.7% | viability, T/C (second compound 0.1 µM, first compound 0.00949 µM) 18.6% | viability, T/C (second compound 0.1 µM, first compound 0.03 µM) 13.7% | viability, T/C (second compound 0.1 µM, first compound 0.0949 µM) 9.41% | viability, T/C (second compound 0.316 µM, first compound 0.000949 µM) 15.2% | viability, T/C (second compound 0.316 µM, first compound 0.003 µM) 13.6% | viability, T/C (second compound 0.316 µM, first compound 0.00949 µM) 10.8% | viability, T/C (second compound 1 µM, first compound 0.000949 µM) 10.2%

NC1CCC(NC2CC2c2ccccc2)CC1 (stereo not given) + Cc1c(S(C)(=O)=O)c(-c2cc(F)cc(N3CCN(c4ccc(NS(=O)(=O)c5ccc(NC(CCN6CCC(C(=O)OCCCP(=O)(O)O)CC6)CSc6ccccc6)c(S(=O)(=O)C(F)(F)F)c5)cc4)CC3)c2)c(-c2ccc(Cl)cc2)n1C(C)C
< 0.316 nM: IC50 (second compound 0.1 µM) | IC50 (second compound 0.316 µM) | IC50 (second compound 1 µM) | IC50 (second compound 3.16 µM) | IC50 (second compound 10 µM)
inactive: viability, T/C (second compound 0.1 µM, first compound 0.000316 µM) 13.1% | viability, T/C (second compound 0.1 µM, first compound 0.001 µM) 13.2% | viability, T/C [1] 10.9% | viability, T/C [2] 10.2% | viability, T/C [3] 12.5% | viability, T/C [4] 11.2% | viability, T/C (second compound 0.316 µM, first compound 0.000316 µM) 10.4%
active: viability, T/C (second compound 0.316 µM, first compound 0.001 µM) 9.84% | viability, T/C [5] 8.02% | viability, T/C [6] 8.28% | viability, T/C [7] 8.54% | viability, T/C [8] 8.22% | viability, T/C (second compound 1 µM, first compound 0.000316 µM) 6.65% | viability, T/C (second compound 1 µM, first compound 0.001 µM) 6.65% | viability, T/C [9] 6.88% | viability, T/C [10] 4.85% | viability, T/C [11] 5.16% | viability, T/C [12] 5.77% | viability, T/C (second compound 3.16 µM, first compound 0.000316 µM) 4.21% | viability, T/C (second compound 3.16 µM, first compound 0.001 µM) 3.65% | viability, T/C [13] 3.75% | viability, T/C [14] 3.61% | viability, T/C [15] 3.49% | viability, T/C [16] 4.43% | viability, T/C (second compound 10 µM, first compound 0.000316 µM) 2.72% | viability, T/C (second compound 10 µM, first compound 0.001 µM) 3.65% | viability, T/C [17] 3% | viability, T/C [18] 2.12% | viability, T/C [19] 2.21% | viability, T/C [20] 2.07%

O=C(c1ccc(F)c(F)c1Nc1ccc(I)cc1F)N1CC(O)([C@@H]2CCCCN2)C1 + Cc1c(S(C)(=O)=O)c(-c2cc(F)cc(N3CCN(c4ccc(NS(=O)(=O)c5ccc(NC(CCN6CCC(C(=O)OCCCP(=O)(O)O)CC6)CSc6ccccc6)c(S(=O)(=O)C(F)(F)F)c5)cc4)CC3)c2)c(-c2ccc(Cl)cc2)n1C(C)C
< 3.16 nM: IC50 (second compound 0.1 µM) | IC50 (second compound 0.316 µM) | IC50 (second compound 1 µM) | IC50 (second compound 3.16 µM) | IC50 (second compound 10 µM)
active: viability, T/C [4] 11% | viability, T/C (second compound 0.1 µM, first compound 0.316 µM) 6.6% | viability, T/C (second compound 0.1 µM, first compound 1 µM) 1.12% | viability, T/C [7] 11% | viability, T/C [8] 8.03% | viability, T/C (second compound 0.316 µM, first compound 0.316 µM) 4.04% | viability, T/C (second compound 0.316 µM, first compound 1 µM) 0.96% | viability, T/C [11] 6.89% | viability, T/C [12] 7.25% | viability, T/C (second compound 1 µM, first compound 0.316 µM) 3.29% | viability, T/C (second compound 1 µM, first compound 1 µM) 0.52% | viability, T/C [13] 7.36% | viability, T/C [14] 7.93% | viability, T/C [15] 7.81% | viability, T/C [16] 5.28% | viability, T/C (second compound 3.16 µM, first compound 0.316 µM) 1.59% | viability, T/C (second compound 3.16 µM, first compound 1 µM) 0.38% | viability, T/C [17] 5.3% | viability, T/C [18] 4.85% | viability, T/C [19] 4.39% | viability, T/C [20] 2.53% | viability, T/C (second compound 10 µM, first compound 0.316 µM) 1.08% | viability, T/C (second compound 10 µM, first compound 1 µM) 0.6%
inactive: viability, T/C [1] 14.8% | viability, T/C [2] 13.6% | viability, T/C [3] 17.2% | viability, T/C [5] 9.21% | viability, T/C [6] 11.2% | viability, T/C [9] 8.77% | viability, T/C [10] 14.6%
